Experimental data as given in patent US20030144237A1, “Use of inhibition of a gas6 function or of a gas6 receptor for preventing and treating a cardiovascular disease” (priority 2000, published 2003).

Columns and labels:
[1] = system: Gas6+/+ platelets; assay: Platelet ATP release (dense granule secretion), Lumi-aggregometer, Gas6+/+ platelets; type: cell-based, mice; design: unit not given here; conditions: mean±SEM of three experiments
Description: (§1) Platelet aggregation and, ATP secretion were measured in an optical Chronolog Lumi-aggregometer (Coulter Electronics Ltd), using 280 μl PRP, adjusted to a concentration of 250,000 platelets/μl with PPP as a diluent. Platelet aggregation was measured as described in example 4. Platelet ATP release was monitored by adding firely luciferase and luciferin to all samples and comparing luminescence created by platelet ATP release to that generated by addition of an ATP standard (Chrono-Lume, Kordia). Aggregation and ATP release in response to collagen (equine collagen from Hormon Chemie), ADP, or the thromboxane A2 mimetic U46619 were studied. Platelet aggregation and ATP secretion in response to thrombin were performed with washed platelets in an optical Chronolog Lumi-aggregometer as described above.

[2] = system: Gas6−/− platelets; assay: Platelet ATP release (dense granule secretion), Lumi-aggregometer, Gas6−/− platelets; type: cell-based, mice; design: unit not given here; conditions: mean±SEM of three experiments
Description: as §1

[3] = system: Platelets from Gas6+/+ mice; assay: Platelet aggregation (turbidimetric, Chronolog aggregometer), Gas6+/+ platelets; type: cell-based; conditions: for platelet aggregation in response to PMA, A23187 or thrombin: FIG. 2, thrombin with washed platelets; for platelet aggregation in response to agonist (dose dependence): platelet-rich plasma, FIG. 1a-j
Description: (§2) Blood was centrifuged at 100 g for 10 minutes, allowing separation of platelet-rich plasma (PRP). Platelet-poor plasma (PPP) was obtained by centrifugation of the remaining blood at 2,000 g for 10 minutes. PRP and PPP were pooled from four Gas6^−/− or Gas6^+/+ mice. Platelet aggregation was measured turbidimetrically in an optical Chronolog aggregometer (model 490, Coulter Electronics Ltd), using 280 μl PRP, adjusted to a concentration of 250,000 platelets/μl with PPP as a diluent. PPP also served as 100% reference for aggregation. Aggregation in response to collagen (equine collagen from Hormon Chemie), ADP or the thromboxane A2 mimetic U46619 was studied.
(§3) Aggregation in response to thrombin was performed with washed platelets. […] Apyrase was added to PRP at a final concentration of 1 u/ml. Platelets were then washed by adding 2 volumes ACD and pelleted by centrifugation at 2,000 g for 10 minutes. Platelet pellet was resuspended in Tyrode's buffer containing 1% BSA and final platelet suspension was adjusted to 200,000 platelets/μl and kept at 37° C. Platelet aggregation was measured with an optical Chronolog aggregometer as described above.

[4] = system: platelets from Gas6−/− mice; assay: Platelet aggregation (turbidimetric, Chronolog aggregometer), Gas6−/− platelets; type: cell-based; conditions: for platelet aggregation in response to PMA, A23187 or thrombin: FIG. 2, thrombin with washed platelets; for irreversible platelet aggregation at higher agonist concentrations: ADP 50 μM, collagen 5-15 μg/ml, U46619 100 μM; for irreversible platelet aggregation at low agonist concentrations: ADP <10 μM, collagen 2 μg/ml, U46619 10 μM, only shape change
Description: as §2, §3

[5] = agonist 8 μM, platelet-rich plasma
[6] = agonist 100 μM, platelet-rich plasma
[7] = agonist 20 μM, platelet-rich plasma
[8] = agonist 50 μM, platelet-rich plasma
[9] = agonist 1 U/ml, washed platelets
[10] = agonist 10 μg/ml, platelet-rich plasma

| Compound | platelet aggregation in response to PMA, A23187 or thrombin [3] | platelet aggregation in response to PMA, A23187 or thrombin [4] | ATP release [1, 6] | ATP release [2, 6] | platelet aggregation in response to agonist (dose dependence) [3] | irreversible platelet aggregation at higher agonist concentrations [4] | irreversible platelet aggregation at low agonist concentrations [4] | other results |
| --- | --- | --- | --- | --- | --- | --- | --- | --- |
| CNc1ccc2oc(C[C@H]3O[C@@]4(CC[C@H]3C)O[C@H]([C@H](C)C(=O)c3ccc[nH]3)[C@H](C)C[C@H]4C)nc2c1C(=O)O [A23187] | aggregated normally | aggregated normally | – | – | – | – | – | ATP release [1, 5]: 9.2 ± 3.1; ATP release [2, 5]: 7.3 ± 3.0 |
| CCCCCCCCCCCCCC(=O)O[C@@H]1[C@@H](C)[C@@]2(O)[C@@H](C=C(CO)C[C@]3(O)C(=O)C(C)=C[C@@H]23)[C@@H]2C(C)(C)[C@]12OC(C)=O [PMA, phorbol-12-myristyl-13-acetate] | aggregated normally | aggregated normally | 2.3 ± 0.4 | 1.9 ± 0.6 | – | – | – | – |
| Nc1ncnc2c1ncn2[C@@H]1O[C@H](COP(=O)(O)OP(=O)(O)O)[C@@H](O)[C@H]1O [ADP, adenosine 5′-diphosphate] | – | – | – | – | dose-dependently aggregated | induced irreversible aggregation | failed to irreversibly aggregate | ATP release [1, 7]: 0.8 ± 0.1; ATP release [1, 8]: 2.6 ± 0.8; ATP release [2, 7]: 0.2 ± 0.1; ATP release [2, 8]: 1.3 ± 0.3 |
| CCCCC[C@H](O)/C=C/[C@@H]1[C@@H](C/C=C\CCCC(=O)O)[C@H]2CO[C@@H]1C2 [U46619] | – | – | 8.2 ± 2.0 | 7.6 ± 2.3 | dose-dependently aggregated | induced irreversible aggregation | failed to irreversibly aggregate | ATP release ([1]; agonist 10 μM, platelet-rich plasma): 6.5 ± 1.5 |
| Thrombin | stimulated platelet aggregation comparably in both genotypes | stimulated platelet aggregation comparably in both genotypes | – | – | – | – | – | ATP release [1, 9]: 17 ± 1.6; ATP release [2, 9]: 11 ± 1.2 |
| Collagen | – | – | – | – | dose-dependently aggregated | induced irreversible aggregation | failed to irreversibly aggregate | ATP release ([1]; agonist 1 μg/ml, platelet-rich plasma): 1.8 ± 0.3; ATP release [1, 10]: 10 ± 1.0; ATP release [2, 10]: 11 ± 0.8 |
